# Results from patent US12496284B2, “Use of itaconate and its derivatives/analogues to induce hair growth” (The Johns Hopkins University, priority 2019, dated 2025).
# “Also recorded” adds a separate entry of the source.
# Key:
# TLR3/IL6/STAT3 axis = test: Treatment of human keratinocytes (NHEKs) with itaconate prodrugs, poly(I:C) challenge, qRT-PCR; type: cell-based; settings: NHEKs pre-treated 2 days, then poly(I:C) for 24 hours, mRNA by qRT-PCR, FIG. 4, FIG. 6
# Method: Neonatal human epidermal keratinocytes (NHEKs) isolates from neonatal foreskin were seeded at a density of 100,000 cells per well and were maintained in KGM supplemented with growth factors (KGM-GOLD Bullet kit, #192060). Prodrugs were reconstituted in DMSO. NHEKs were pre-treated with either vehicle (0.1% DMSO) or prodrug. After 2 days, NHEKs were treated with […] poly(I:C) for 24 hours.
# Total RNA was isolated and purified from cultured NHEKs using the RNeasy Mini Kit (Qiagen, Valencia, CA, #74106). After assessing RNA purity and concentrations using a NanoDrop 2000 UV-Vis spectrophotometer, RNA was converted to cDNA using a reverse-transcription kit and random hexamer primers (Applied Biosystems, #4368814). mRNA expression was determined by qRT-PCR using gene-specific, fluorophore-based TaqMan probes and universal master mix (Applied Biosystems, #4366072). The qRT-PCR reactions were multiplexed using target and reference gene (RPLPO) probes. Relative mRNA fold changes were then quantified using the […] method.
# Next, whether itaconate derivatives, such as itaconate prodrugs, have this same capacity was tested. To screen for compounds, those that behaved in vitro with similar properties to itaconate were evaluated. First, the molecular effect of dimethyl itaconate (DI) to blunt dsRNA (PIC; Polyinosinic:polycytidylic acid) effect at increasing TLR3, IL-6, and STAT3 expression was tested.
# Next, the ability of synthesized itaconate prodrugs to behave similarly in the in vitro assay was tested. […] Methods are as above, but substituting the […].
# C57BL6/J mice = test: Hair growth (telogen to anagen transition) after topical treatment of shaved mice; type: in vivo; settings: for hair growth compared with JAK inhibitors: 3% each diluted in DMSO, topical, FIG. 9
# Method: All adult wild-type (C57BL6/J) mice were approximate 8.5 weeks old and obtained from Jackson Labs (#00664). All animals were maintained in an AAALAC (Accreditation of Laboratory Animal Care International)—approved facility at Johns Hopkins University. All experimental procedures were approved by the Institutional Animal Care and Use Committee at Johns Hopkins under the protocol #MO17M298.
# (§1) Adult C57BL6/J mice were treated during the refractory period of hair dormancy (telogen) to allow for hair growth (anagen) re-initiation. To determine the anagen re-entry, mice were grossly observed for skin thickening and darkening. Mice were shaved on their dorsal side and the left half the skin was topically treated with either vehicle (DMSO) or prodrug (20% IS-100-142 (compound 5)) with the right side untreated. The treatment regimen was once every other day for a total of two treatment cycles.
# In one aspect, the presently disclosed subject matter is directed to compounds that might be able to enhance hair growth. To this end, the ability of dimethyl itaconate to induce the transition from the resting phase of the hair cycle, telogen, to the growing phase of the hair cycle, anagen, in wild type mice was tested.
# Finally, the ability of compound 5 to also induce hair growth as observed for DI was tested. […] Here mice were treated as above, except the left side was treated with either compound 5 or DMSO and the right side was left untreated. The small amount of hair growth in the DMSO treated mouse was from the natural anagen cycle beginning.
# as §1, with “All adult wild-type (C57BL6/J) mice were approximate 8.5 weeks old and obtained from Jackson Labs. Animals were fed standard mouse diet. […] Adult” for “Adult”, “right” for “left”, “dimethyl itaconate (20%) or with 1% compound 5, 2% compound 5 or 5% compound 5” for “prodrug (20% IS-100-142 (compound 5))”, “left” for “right”, “or three treatments with similar results.” for “treatment cycles.”
# [1] = Mouse skin penetration in Alopecia model; type: in vivo; settings: dose 5% w/v
# From the text: Referring now to FIG. 12, mouse skin penetration in an Alopecia model for IS-100-142 (compound 5) (left panel) and monomethyl itaconate (right panel) is shown.
Compound,"inhibition of dsRNA (poly(I:C)) effect at increasing TLR3, IL-6 and STAT3 expression (downstream gene targets TLR3, IL6, STAT3, WNT7B) (TLR3/IL6/STAT3 axis)","inhibition of dsRNA (poly(I:C)) effect at increasing TLR3, IL-6 and STAT3 expression (downstream gene targets TLR3, IL6, STAT3, WNT7B) (TLR3/IL6/STAT3 axis; listed as IS-100-142)","transition of hair follicle from telogen to anagen (hair growth) (C57BL6/J mice; 1%, 2% or 5% compound 5 topical on right half of skin, once every other day, two or three treatments, FIG. 8)",hair growth compared with JAK inhibitors (C57BL6/J mice),"hair growth (C57BL6/J mice; 20% compound 5 in DMSO, topical on left half of shaved dorsal skin, once every other day, two treatment cycles, FIG. 7)","intact prodrug levels, skin versus plasma ([1]; topical application in DMSO, FIG. 12 left panel)","monomethyl itaconate levels, skin versus plasma ([1]; topical application of IS-100-142 in DMSO, FIG. 12 right panel)","inhibition of dsRNA (poly(I:C)) effect at increasing TLR3, IL-6 and STAT3 expression (downstream gene targets TLR3, IL6, STAT3, WNT7B) (TLR3/IL6/STAT3 axis; listed as DI)","transition from telogen (resting phase) to anagen (growing phase) of the hair cycle (C57BL6/J mice; 20% dimethyl itaconate, wild type mice, FIG. 5)"
C=C(CC(=O)OC)C(=O)OCOC(=O)OC(C)C [Compound 5],potently inhibited the same dsRNA response as DI,inhibits JAK-STAT signaling most effectively,promote transition of hair follicle from telogen (quiescence phase) to anagen (growing phase); also recorded: induces hair growth,comparable levels as Ruxolitinib and Tofacitinib,induces hair growth,higher in skin versus plasma,higher in skin versus plasma,–,–
"C[C@@H]1CCN(C(=O)CC#N)C[C@@H]1N(C)c1ncnc2[nH]ccc12 [Tofacitinib, reference compound]",–,–,–,comparable levels,–,–,–,–,–
"C=C(CC(=O)OC)C(=O)OC [dimethyl itaconate, reference compound]",blunt dsRNA,–,–,–,–,–,–,potently inhibits those markers,potently induced this transition; also recorded: induces the transition
